For series [1] the following is noted: human, in vivo. The protocol:
Preliminary pharmacokinetic analyses were undertaken in order to determine whether the GA and DL administered to the patients orally were absorbed into the blood stream and into the CSF. […] As can also be observed, DL levels reach 140 mg/L in the blood 1-hour post-administration and are reduced to approx. 20 mg/I after 2- or 3-hours post-administration.
As can be observed in FIG. 9, GA levels are approximately 20 mg/I in the CSF 1-hour post-administration. As can also be observed, DL levels are approximately 5 mg/I in the CSF 1-hour post-administration. 100 mg/kg GA and 100 mg/kg DL was administered in patients to obtain the pharmacokinetic data.

Series [2] has as its system HeLa cells treated with siRNA against PARK-7/DJ-1. In words: Calcium imaging on HeLa cells during mitosis after PARK-7/DJ-1 down-regulation. It counts as cell-based. The note with it: PARK-7/DJ-1 down-regulated HeLa cells, 5 mM, FIG. 17. Here is the method: HeLa cells were loaded with Fluo-4 AM, a dye used to measure calcium concentration in living cells, as described by the manufacturer and recorded for 4 hours. Graphics show the variations in intracellular calcium concentration during mitosis in WT and cells treated with siRNA against PARK-7/DJ-1 to down-regulate this gene.
HeLa-Kyoto cells stably expressing histone H2B-mCherry and mouse DJ-1 were used. Cells were maintained in DMEM supplemented with 10% fetal bovine serum (FBS), 2 mM GlutaMAX, 100 unit/ml penicillin, 100 μg/ml streptomycin. For esiRNA treatment, cells were plated at a density of 15.000 cells/well in an ibidi 8 well chamber (Cat. no 80826, ibidi, Germany, EU), transfected with different esiRNAs (RLUC as empty vector, hPARK-7 and hKIF11 as positive control) (all esiRNAs were obtained from Eupheria, Germany, EU), and left for 72 hours before performing calcium imaging. esiRNA transfection was performed as follows. esiRNA was diluted in distilled water to a concentration of 20 ng/μl. For each well, two solutions were made: 1. […]
We observed that the Fluo-4 AM dye started to leak out of the cells into the medium after 1.5 hours of imaging. […] Images were analyzed using FIJI Image Analysis Freeware (https://fiji.sc). MFI of the Fluo-4 AM signal within the cell was determined using manually selected ROIs covering the whole cell area for each time-point. […]

Experimental findings from patent US20230277491A1, “PHARMACEUTICAL COMBINATION COMPRISING GLYCOLIC ACID AND L-ALANINE” (priority 2020, published 2023) are described below.

In the case of `O=C(O)CO` [GA, 2-hydroxyethanoic acid], in series [1], the “GA dose at which the concentration of GA in the blood is too low” value is “lower than 50 mg/kg”, the “concentration in the CSF” value is “ca. 0.33 mM”, the “concentration in the blood” value is 2000 µM and the “concentration in the cerebrospinal fluid relative to blood (lower)” value was “about 1:6”. The “calcium influx during mitosis” value in series [2] is on record as “able to rescue this phenotype”.
